Our source for the EC50 and IC50 values is patent US20160002204A1 (Board of Regents, The University of Texas System, priority 2014, published 2016).

The test system of one assay is A549 cells. Put plainly: A549 proliferation (viability) assay, Cell Titer Fluor, 72 hours. The assay is classed as cell-based. The following applies: Homo sapiens. In outline:
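A549 cells in RPMI 1640 with 10% dialyzed FBS were seeded at 1000 cells/well, grown 24 h, then exposed to compound (0.5% DMSO final) for 72 h at 37 °C, 5% CO2. Viability was read by Cell Titer Fluor fluorescence; EC50 from four-parameter logistic fit.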

For assay [1], the target named is T1, GLS1 (purified recombinant human GAC) (Homo sapiens, UniProt O94925).
T1 sequence (O94925 55-598 isoform O94925-3 limits assumed): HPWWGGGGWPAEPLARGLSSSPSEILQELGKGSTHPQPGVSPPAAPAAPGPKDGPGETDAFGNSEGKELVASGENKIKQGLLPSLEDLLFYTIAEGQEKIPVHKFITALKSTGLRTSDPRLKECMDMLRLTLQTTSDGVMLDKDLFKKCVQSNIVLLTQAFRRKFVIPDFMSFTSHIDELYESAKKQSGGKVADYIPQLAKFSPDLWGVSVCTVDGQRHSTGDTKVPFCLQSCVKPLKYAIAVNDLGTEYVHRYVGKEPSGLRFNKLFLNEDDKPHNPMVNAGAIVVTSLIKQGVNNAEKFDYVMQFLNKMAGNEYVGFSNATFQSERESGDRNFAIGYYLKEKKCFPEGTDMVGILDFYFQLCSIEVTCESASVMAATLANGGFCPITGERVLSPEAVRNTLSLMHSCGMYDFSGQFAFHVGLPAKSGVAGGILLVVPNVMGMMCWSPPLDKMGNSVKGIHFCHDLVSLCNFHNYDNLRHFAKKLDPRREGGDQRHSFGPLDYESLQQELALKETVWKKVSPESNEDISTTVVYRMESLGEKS
Put plainly: GLS1 enzymatic activity assay (dual-coupled, Amplex UltraRed/resorufin). The assay is classed as biochemical. Summed up:
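GAC activity measured by coupling glutamate to glutamate oxidase and HRP, generating resorufin from Amplex UltraRed. Enzyme (2 nM) preincubated with 50 mM potassium phosphate 10 min at room temperature, then inhibitor 10 min; 1 mM glutamine substrate, 1% DMSO. Fluorescence 530/590 nm, kinetic or 20-min endpoint; IC50 from four-parameter logistic fit.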

As usually defined, the EC50 is the concentration that produces a half-maximal response. A low value points to a more potent agent. The IC50 is the concentration that inhibits the measured activity by half. For `O=C(CC1CCCC1)Nc1ccn(CCCCn2cc(C(=O)NCc3cccc(OC(F)(F)F)c3)nn2)c(=O)c1` [Example 210, 1-{4-[4-(2-cyclopentylacetamido)-2-oxo-1,2-dihydropyridin-1-yl]butyl}-N-{[3-(trifluoromethoxy)phenyl]methyl}-1H-1,2,3-triazole-4-carboxamide], in the assay on A549 cells, the EC50 is less than 100 nM. Further, the IC50 in assay [1] is less than 100 nM.
In turn, `O=C(Cc1ccccc1)Nc1ccn(CCCCn2cc(C(=O)NCc3ccccn3)nn2)c(=O)c1` [Example 34, 1-{4-[2-oxo-4-(2-phenylacetamido)-1,2-dihydropyridin-1-yl]butyl}-N-(pyridin-2-ylmethyl)-1H-1,2,3-triazole-4-carboxamide] registered an EC50 in the assay on A549 cells of more than 5000 nM. The IC50 in assay [1] was in the range of 100 to 500 nM.
The corresponding values for `CC(C)COC(=O)Nc1ccn(CCCCn2cc(C(=O)NCc3cccc(OC(F)(F)F)c3)nn2)c(=O)c1` [Example 7, Isobutyl(2-oxo-1-(4-(4-((3-(trifluoromethoxy)benzyl)carbamoyl)-1H-1,2,3-triazol-1-yl)butyl)-1,2-dihydropyridin-4-yl)carbamate] are 100 to 500 nM and less than 100 nM.
For `CS(=O)(=O)CCC(=O)Nc1ccn(CCCCc2ccc(NC(=O)Cc3cccc(OC(F)(F)F)c3)nn2)c(=O)n1` [Example 110, 3-methanesulfonyl-N-{2-oxo-1-[4-(6-{2-[3-(trifluoro-methoxy)phenyl]acetamido}pyridazin-3-yl)butyl]-1,2-dihydropyrimidin-4-yl}propanamide], in that order: 100 to 500 nM and less than 100 nM.
The corresponding values for `O=C(Nc1ccn(CCC(F)Cn2cc(C(=O)NCc3cc(OC(F)(F)F)ccc3F)nn2)c(=O)c1F)C(=O)N1CCC[C@@H](C(F)(F)F)C1` (stereo partly drawn) [Example 434, 1-[2-fluoro-4-(3-fluoro-2-oxo-4-{2-oxo-2-[(3R)-3-(trifluoromethyl)piperidin-1-yl]acetamido)-1,2-dihydropyridin-1-yl)butyl]-N-{[2-fluoro-5-(trifluoromethoxy)phenyl]methyl}-1H-1,2,3-triazole-4-carboxamide] are less than 100 nM and less than 100 nM.
Regarding `O=C(CN1CCCC1)Nc1ccn(CCC(F)Cn2cc(C(=O)NCc3cccc(OC(F)(F)F)c3)nn2)c(=O)c1F` (stereo not drawn) [Example 293, 1-(2-fluoro-4-{3-fluoro-2-oxo-4-[2-(pyrrolidin-1-yl)acetamido]-1,2-dihydropyridin-1-yl}butyl)-N-{[3-(trifluoromethoxy)phenyl]methyl}-1H-1,2,3-triazole-4-carboxamide], in the assay with A549 cells, the EC50 is 100 to 500 nM. For the same molecule, the IC50 in assay [1] was less than 100 nM.
The corresponding values for `CC(C)CC(=O)Nc1ccn(CCCCc2ccc(NC(=O)Cc3cccc(OC(F)(F)F)c3)nn2)c(=O)n1` [Example 111, 3-methyl-N-{2-oxo-1-[4-(6-{2-[3-(trifluoromethoxy)phenyl]acetamido}pyridazin-3-yl)butyl]-1,2-dihydropyrimidin-4-yl}butanamide] are less than 100 nM and less than 100 nM.
For `N#Cc1cccc(CC(=O)Nc2ccn(CCC(F)Cn3cc(C(=O)NCc4cccc(OC(F)(F)F)c4)nn3)c(=O)c2)c1` (stereo not drawn) [Example 235, 1-(4-{4-[2-(3-cyanophenyl)acetamido]-2-oxo-1,2-dihydropyridin-1-yl}-2-fluorobutyl)-N-{[3-(trifluoromethoxy)phenyl]methyl}-1H-1,2,3-triazole-4-carboxamide], in that order: 500 to 5000 nM and less than 100 nM.
In the assay with A549 cells, `Cc1ccc(CNC(=O)c2cn(CC(F)CCn3ccc(NC(=O)Cc4ccccc4)cc3=O)nn2)cn1` (stereo not drawn) [Example 150, 1-{2-fluoro-4-[2-oxo-4-(2-phenylacetamido)-1,2-dihydropyridin-1-yl]butyl}-N-[(6-methylpyridin-3-yl)methyl]-1H-1,2,3-triazole-4-carboxamide] showed an EC50 of more than 5000 nM. The IC50 in assay [1] was 100 to 500 nM.
Turning to `O=C(CC1CCCCC1)Nc1ccn(CCC(F)Cn2cc(C(=O)NCc3ccc(C(F)(F)F)nc3)nn2)c(=O)c1F` (stereo not drawn) [Example 260, 1-{4-[4-(2-cyclohexylacetamido)-3-fluoro-2-oxo-1,2-dihydropyridin-1-yl]-2-fluorobutyl}-N-{[6-(trifluoromethyl)pyridin-3-yl]methyl}-1H-1,2,3-triazole-4-carboxamide], in the assay with A549 cells, the EC50 was less than 100 nM. Besides, the IC50 in assay [1] is less than 100 nM.
Consider `Cc1ccc(CNC(=O)c2cn(CC(F)CCn3ccc(NC(=O)OC(C)(C)C)c(F)c3=O)nn2)cn1` (stereo not drawn) [Example 298, tert-butyl N-{3-fluoro-1-[3-fluoro-4-(4-{[(6-methylpyridin-3-yl)methyl]carbamoyl}-1H-1,2,3-triazol-1-yl)butyl]-2-oxo-1,2-dihydropyridin-4-yl}carbamate], for which the EC50 in the assay with A549 cells was in the range of 500 to 5000 nM. In assay [1], the IC50 was in the range of 100 to 500 nM.
Take `O=C(Nc1ccn(CCC(F)Cn2cc(C(=O)NCc3cc(C(F)(F)F)ccn3)nn2)c(=O)n1)OC1CCC1` (stereo not drawn) [Example 410, cyclobutyl N-(1-{3-fluoro-4-[4-({[4-(trifluoromethyl)pyridin-2-yl]methyl}carbamoyl)-1H-1,2,3-triazol-1-yl]butyl}-2-oxo-1,2-dihydropyrimidin-4-yl)carbamate]: the EC50 with A549 cells fell in the range of 500 to 5000 nM. For the same molecule, the IC50 in assay [1] fell in the range of 100 to 500 nM.
For `O=C(Cc1ccccn1)Nc1ccn(CCC(F)Cn2cc(C(=O)NCc3cc(OC(F)(F)F)ccc3F)nn2)c(=O)c1` (stereo not drawn) [Example 182, 1-(2-fluoro-4-{2-oxo-4-[2-(pyridin-2-yl)acetamido]-1,2-dihydropyridin-1-yl}butyl)-N-{[2-fluoro-5-(trifluoromethoxy)phenyl]methyl}-1H-1,2,3-triazole-4-carboxamide], in that order: 100 to 500 nM and less than 100 nM.
The corresponding values for `CC(C)CC(=O)Nc1ccn(CCCCn2cc(C(=O)NCc3cccnc3)nn2)c(=O)c1` [Example 37, 1-{4-[4-(3-methylbutanamido)-2-oxo-1,2-dihydropyridin-1-yl]butyl}-N-(pyridin-3-ylmethyl)-1H-1,2,3-triazole-4-carboxamide] are more than 5000 nM and 500 to 5000 nM.
The corresponding values for `CC(C)(C)OC(=O)Nc1ccn(CCC(F)Cn2cc(C(=O)NCc3cccc(OC(F)(F)F)c3)nn2)c(=O)c1F` (stereo not drawn) [Example 226, tert-butyl N-(3-fluoro-1-{3-fluoro-4-[4-({[3-(trifluoro-methoxy)phenyl]methyl}carbamoyl)-1H-1,2,3-triazol-1-yl]butyl}-2-oxo-1,2-dihydropyridin-4-yl)carbamate] are less than 100 nM and less than 100 nM.
Take `O=C(Cc1ccccc1)Nc1ccn(CCC(F)Cn2cc(C(=O)NCc3cccc(OC(F)(F)F)c3)nn2)c(=O)c1` (stereo not drawn) [Example 134, 1-{2-fluoro-4-[2-oxo-4-(2-phenylacetamido)-1,2-dihydropyridin-1-yl]butyl}-N-{[3-(trifluoromethoxy)phenyl]methyl}-1H-1,2,3-triazole-4-carboxamide]: in the assay on A549 cells, the EC50 was less than 100 nM. Also, in assay [1], the IC50 is less than 100 nM.
For the molecule `O=C(Cc1cccc(OC(F)(F)F)c1)Nc1ccn(CCCCn2cc(C(=O)NCc3ccccn3)nn2)c(=O)c1` [Example 10, 1-(4-(2-oxo-4-(2-(3-(trifluoromethoxy)phenyl)acetamido)pyridin-1(2H)-yl)butyl)-N-(pyridin-2-ylmethyl)-1H-1,2,3-triazole-4-carboxamide], the EC50 with A549 cells fell in the range of 500 to 5000 nM. Also, the IC50 in assay [1] was less than 100 nM.
For `Cc1ccc(CNC(=O)c2cn(CC(F)CCn3ccc(NC(=O)CC4CCCC4)c(F)c3=O)nn2)cn1` (stereo not drawn) [Example 303, 1-{4-[4-(2-cyclopentylacetamido)-3-fluoro-2-oxo-1,2-dihydropyridin-1-yl]-2-fluorobutyl}-N-[(6-methylpyridin-3-yl)methyl]-1H-1,2,3-triazole-4-carboxamide], in that order: less than 100 nM and less than 100 nM.
The corresponding values for `O=C(CC1CCC1)Nc1ccn(CCC(F)Cn2cc(C(=O)NCc3ccc(C(F)(F)F)nc3)nn2)c(=O)c1F` (stereo not drawn) [Example 357, 1-{4-[4-(2-cyclobutylacetamido)-3-fluoro-2-oxo-1,2-dihydropyridin-1-yl]-2-fluorobutyl}-N-{[6-(trifluoromethyl)pyridin-3-yl]methyl}-1H-1,2,3-triazole-4-carboxamide] are 100 to 500 nM and less than 100 nM.
The corresponding values for `O=C(Cc1cccc(OC(F)(F)F)c1)Nc1nnc(CCCCn2ccc(NC(=O)CC3CCCC3)c(F)c2=O)s1` [Example 503, 2-cyclopentyl-N-{3-fluoro-2-oxo-1-[4-(5-{2-[3-(trifluoromethoxy)phenyl]acetamido}-1,3,4-thiadiazol-2-yl)butyl]-1,2-dihydropyridin-4-yl}acetamide] are less than 100 nM and less than 100 nM.
As to `Cc1ccc(CNC(=O)c2cn(CC(F)CCn3ccc(NC(=O)CC4CCCCO4)cc3=O)nn2)cn1` (stereo not drawn) [Example 195, 1-(2-fluoro-4-{4-[2-(oxan-2-yl)acetamido]-2-oxo-1,2-dihydropyridin-1-yl}butyl)-N-[(6-methylpyridin-3-yl)methyl]-1H-1,2,3-triazole-4-carboxamide], in the assay on A549 cells, the EC50 was 500 to 5000 nM. Further, the IC50 in assay [1] fell in the range of 100 to 500 nM.
